Laboratory results taken from patent US20080132539A1, “Hydroxamic Acid Derivative And Age Generation Inhibitor Containing The Derivative” (priority 2003, published 2008).

Columns and labels:
Assay type in all cases: biochemical
[1] = Glyoxal-trapping activity test (DMB derivatisation, HPLC); details: 0.02 mM glyoxal, 0.2 mM test compound, PBS, 37° C., 30 minutes
Description: (§1) In 0.2 mL of PBS were incubated 0.02 mM of glyoxal and 0.2 mM of test compound at 37° C. for 30 minutes. Subsequently, a volume of 5 mM DMB (1,2-diamino-4,5-methylenedioxy benzene) solution equivalent to 10 μL of the incubation sample was added, followed by further incubation at 4° C. for 7 hours to react the remaining methyl glyoxal with DMB. After the end of reaction, a 0.4 M phosphate buffer solution (pH 7.2) was added for neutralization, followed by quantitating the modified product of glyoxal-DMB using HPLC.
(§2) HPLC having a YMC-Pack Pro C18 column (φ4.6 mm×150 mm) and employing 5 mM sodium phosphate buffer (pH 7.4)-25% acetonitrile as a mobile phase was used at a flow rate of 0.7 mL/min to determine fluorescence strength at Ex352 nm and Em385 nm.
The proportion of glyoxal trapped by the test compound was calculated as % trapping activity, based on the quantitative value of the total modified product of glyoxal-DMB in the absence of the test compound.

[2] = test system: Maillard reaction (lysozyme / fructose, dimer formation); assay: Maillard reaction-inhibiting effects (lysozyme dimer formation with fructose, SDS-PAGE densitometry); details: 10 mg/mL lysozyme, 200 mM fructose, pH 7.4, 37° C., 4 days, dimer formation inhibition rate
Description: This Example examined Maillard reaction-inhibiting effects using, as test compounds, the compounds produced in the above-described Examples and the commercially available substances arginine hydroxamate (Compound No. 111), tyrosine hydroxamate (Compound No. 112), and tryptophan hydroxamate (Compound No. 113). More specifically, 10 mg/mL lysozyme, 200 mM fructose, and each of the above-described test compounds dissolved in a 0.4 mM sodium phosphate buffer (pH 7.4) so as to provide a concentrations of 0.1, 0.3, 1, or 3 mM were incubated at 37° C. for 4 days. After the incubation, the samples were subjected to SDS-PAGE, stained with Coomassie Brilliant Blue R-250, and quantitated for the formed dimmers using a densitometer. The Maillard reaction-inhibiting activity was defined as the dimmer formation inhibition rate of a test compound calculated on the basis that the amount of dimmer is 100% in the absence of the test compound, using, as blank, the amount of dimer in the absence of fructose and the test compound.

[3] = Methyl glyoxal-trapping activity test (DMB derivatisation, HPLC); details: 0.02 mM methyl glyoxal, 0.2 mM test compound, PBS, 37° C., 30 minutes
Description: as §1, with “mM of methyl glyoxal and” for “mM of glyoxal and”, “product of methyl glyoxal-DMB using” for “product of glyoxal-DMB using”
as §2
The proportion of methyl glyoxal trapped by the test compound was calculated as % trapping activity, based on the quantitative value of the total modified product of methyl glyoxal-DMB in the absence of the test compound.

[4] = test compound concentration 0.1 mM
[5] = test compound concentration 0.3 mM
[6] = test compound concentration 1 mM
[7] = test compound concentration 3 mM

Compound	Glyoxal-trapping activity (% trapping) [1] [% trapping]	Maillard reaction-inhibiting activity (%) [2, 4] [%]	Maillard reaction-inhibiting activity (%) [2, 5] [%]	Maillard reaction-inhibiting activity (%) [2, 6] [%]	Maillard reaction-inhibiting activity (%) [2, 7] [%]	Methyl-glyoxal-trapping activity (% trapping) [3] [% trapping]
N=C(N)NN [Aminoguanidine, reference compound]	32.9 ± 3.8	−3	−5	7	26	52.8 ± 1.5
CCCCCn1cc(CC(N)C(=O)NO)c2ccccc21 (racemic) [Compound No. 105, (RS)-2-amino-3-(1-pentyl-1H-indol-3-yl)-N-hydroxypropionamide]	69.7 ± 1.1	95	97	98	98	93.3 ± 0.8
N#Cc1ccc(Cn2cc(CC(N)C(=O)NO)c3ccccc32)cc1 (racemic) [Compound No. 107, (RS)-2-amino-3-[1-(4-cyanobenzyl)-1H-indol-3-yl]-N-hydroxypropionamide]	69.8 ± 1.2	101	100	101	101	87.3 ± 0.5
NC(Cc1c[nH]c2ccccc12)C(=O)NO (centres unmarked) [Compound No. 113, tryptophan hydroxamate]	75.9 ± 0.9	42	76	99	102	96.2 ± 0.7
CCCn1c(CC[C@H](N)C(=O)NO)nc2cc(C)c(C)cc21 [Compound No. 94, (S)-2-amino-4-(5,6-dimethyl-1-propyl-1H-benzimidazol-2-yl)-N-hydroxybutyramide]		12	83	100	102	
N[C@@H](CCCNC1CCCCC1)C(=O)NO [Compound No. 27, (S)-2-amino-5-cyclohexylaminopentanoic acid hydroxyamide]		1	7	32	100	
NC(N)=NCCC[C@H](N)C(=O)NO [Compound No. 111, arginine hydroxamate]	75.2 ± 1.3	10	17	75	98	77.6 ± 0.5
N[C@@H](Cc1cn(Cc2c(F)c(F)c(F)c(F)c2F)c2ccccc12)C(=O)NO [Compound No. 104, (S)-2-amino-3-(1-pentafluorophenylmethyl-1H-indol-3-yl)-N-hydroxypropionamide]	66.5 ± 2.4	95	97	94	100	81.9 ± 2.1
CC(C)(C)c1ccc(COc2ccc(C[C@H](N)C(=O)NO)cc2)cc1 [Compound No. 99, (S)-2-amino-3-[4-(4-t-butylbenzyloxy)phenyl]-N-hydroxypropionamide]		95	95	99	101	
N[C@@H](Cc1ccc([N+](=O)[O-])cc1)C(=O)NO [Compound No. 40, (S)-2-amino-3-(4-nitrophenyl)-N-hydroxypropionamide]		37	49	96	100	
COC(=O)Nc1ccc(C[C@H](N)C(=O)NO)cc1 [Compound No. 36, (S)-2-amino-3-(4-methoxycarbonylaminophenyl)-N-hydroxypropionamide]		15	33	69	102	
Cc1ccc(CN(CCC[C@H](N)C(=O)NO)Cc2ccc(C)cc2)cc1 [Compound No. 28, (S)-2-amino-5-[bis-(4-methyl-benzyl)amino]pentanoic acid hydroxyamide]		100	100	100	100	
Cc1ccc(C(=O)Nc2ccc(C[C@H](N)C(=O)NO)cc2)cc1 [Compound No. 30, (S)-2-amino-3-[4-(4-methylbenzoyl)amino-phenyl]-N-hydroxypropionamide]		56	74	80	92	
CCCN(CCC)CCC[C@H](N)C(=O)NO [Compound No. 25, (S)-2-amino-5-dipropylaminopentanoic acid hydroxyamide]		7	6	40	100	
N[C@@H](CCC(=O)NCC(c1ccccc1)c1ccccc1)C(=O)NO [Compound No. 6, (S)-2-amino-4-(2,2-diphenylethylaminocarbonyl)-N-hydroxybutyramide]		49	97	103	100	
CCCn1c(CC[C@H](NCC2CCCCC2)C(=O)NO)nc2ccccc21 [Compound No. 97, (S)-2-(cyclohexylmethyl-amino)-4-(1-propyl-1H-benzimidazol-2-yl)-N-hydroxybutyramide]		96	98	98	98	
CCCN(CCC)c1ccc(C[C@H](N)C(=O)NO)cc1 [Compound No. 38, (S)-2-amino-3-(4-dipropylamino-1-phenyl)-N-hydroxypropionamide]		100	100	100	100	
N[C@@H](CCc1nc2ccccc2n1Cc1ccc(F)cc1)C(=O)NO [Compound No. 73, (S)-2-amino-N-hydroxy-4-[1-(4-fluorobenzyl)-1H-benzimidazol-2-yl]butyramide]		94	98	98	100	
CC(C)Cn1c(CC[C@H](N)C(=O)NO)nc2ccccc21 [Compound No. 72, (S)-2-amino-N-hydroxy-4-(1-isobutyl-1H-benzimidazol-2-yl)butyramide]		53	94	100	101	
NC(Cc1cn(Cc2ccc(F)c(F)c2)c2ccccc12)C(=O)NO (racemic) [Compound No. 108, (RS)-2-amino-3-[1-(3,4-difluorobenzyl)-1H-indol-3-yl]-N-hydroxypropionamide]		102	103	104	104	
